From publication PMC11845477, “Exploring the principles behind antibiotics with limited resistance” (Nature Communications, 2025)

What was measured:
[1] = test system: E. coli ATCC 25922 (SEN) and E. coli NCTC13846 (MDR); test: Adaptive laboratory evolution (ALE), relative MIC of evolved lines; assay type: cell-based, Escherichia coli
Source text: Using the same set of bacterial strains, we initiated adaptive laboratory evolution with the aim to maximize the level of antibiotic resistance in the populations achieved during a longer, but fixed time period.
An established protocol for adaptive laboratory evolution[46],[73] was followed to propagate populations with the highest resistance levels. Starting with an antibiotic concentration that caused approximately 50% growth inhibition, ten parallel populations for each antibiotic-ancestor strain combination were grown for 72 hours at 37 °C with continuous shaking (300 RPM). MHB broth medium was used unless stated otherwise. After each incubation, 20 µl of each culture was transferred to four new wells containing fresh medium with increasing antibiotic concentrations (0.5×, 1×, 1.5×, and 2.5× the previous concentration) in a chessboard layout to monitor potential cross-contamination. Growth was monitored by measuring OD600 using a Biotek Synergy 2 microplate reader, and only populations grown in the highest drug concentration with an OD600 > 0.2 were transferred further.
A robotic liquid handling system was used to automatically prepare a 11 to 16-step serial dilution in 384-well microtiter plates (Greiner). A final concentration of 5 × 10^5 bacterial cells per mL were inoculated into each well containing 60 µL MHB medium. Bacterial cultures were incubated at 37 °C with continuous shaking (Infors shaker, 900 rpm with 3 mm throw) for 18 hours (2 replicates from each). Cell growth was monitored by measuring the optical density (OD600 values, using Biotek Synergy microplate reader). MIC was defined as the antibiotic concentration of complete growth inhibition (i.e., OD600 < 0.05). Relative MIC was calculated as follows:1 relativeMIC=MICevolved/MICancestor […]
Supplementary Figure 4. Resistance levels following adaptive laboratory evolution across bacterial strains. The level of resistance was measured as the fold change in relative MIC between evolved and ancestral strains after ~60 days of adaptive laboratory evolution. Data are grouped by bacterial strain (A. baumannii (AB), E. coli (EC), K. pneumoniae (KP), and P. aeruginosa (PA)) and categorized as either multidrug-resistant (MDR) or sensitive (SEN). Each data point represents a laboratory evolved line, and boxplots show the median, first and third quartiles, with whiskers indicating the 5th and 95th percentiles.
Statistical analysis was performed using two-sided Dunn’s post-hoc test with Benjamini-Hochberg correction for multiple comparisons (****/ ***/ **/ * indicates p < 0.0001/ 0.001/ 0.01/ 0.05). For detailed information on antibiotic and bacterial species, see Supplementary Table 1. For mode of action groups, refer to Table 1. Source data are provided as a Source Data file.
(1 picture or pasted object on this page, not shown here)

[2] = test system: E. coli BW25113-ΔacrB; test: AcrAB-TolC efflux deficiency screen, relative MIC; assay type: cell-based, Escherichia coli; settings: ΔacrB vs wild-type
Description: Fig. 6 The impact of AcrAB-TolC activity on antibiotic susceptibility. E. coli strains with AcrAB-TolC depletion (BW25113-ΔacrB) and overexpression (BW25113: pUCacrAB) were treated with various antibiotics, and the level of resistance was determined as minimum inhibitory concentration (MIC) relative to a wild-type strain, presented on a logarithmic scale (log2). Each bar represents the mean resistance level (susceptibility, i.e., level of resistance < 0; and resistance, i.e., level of resistance > 0) to antibiotics induced by acrAB overexpression (blue bars; E. coli with a multicopy plasmid of the acrAB genes (pUCacrAB)) and acrB deletion (red bars; mutant E. coli with acrB gene deletion (ΔacrB)) compared to the wild-type. Data are presented as mean values of 3 biological replicates ± SD. […] Detailed information on antibiotic and bacterial strain abbreviations is provided in Supplementary Data 1. Source data are provided as a Source Data file. For information on mode of action groups, refer to Table 1.
For the efflux deficiency screen, the ΔacrB mutant of E. coli K12 BW25113[86] and its equivalent wild-type control strain with intact gene were utilized. In contrast, BW25113 carrying a multicopy acrAB plasmid (pUCacrAB)[87] and its control strain harboring an empty pUC118 plasmid were used to overexpress the acrAB efflux system. According to established protocols via P1 transduction, the suitable acrB deletion mutant (ΔacrB BW25113) was created, while the pUCacrAB plasmid was kindly provided by Kunihiko Nishino and Akihito Yamaguchi (Osaka University, Osaka, Japan). In a prior study, both strains were employed. Since the copy number of the plasmid carrying the efflux pump is controlled by native promoters, external induction is unnecessary.
Antibiotic susceptibilities of these strains were evaluated using a modified version of the standard broth dilution method. In 96-well microtiter plates containing fresh MHB medium, or supplemented MS medium in case of SCH79797, ten-step serial dilutions of an antibiotic from a stock solution were made (2 wells per antibiotic concentration per strain). The two wells contained only supplemented media without any antibiotics […]. Strains were incubated overnight at 37 °C with continuous agitation. Additionally, plasmid containing strains were grown in the presence of 100 µg/mL ampicillin. The culture was diluted to yield a cell suspension with 5 ×10^5 cells/mL and then inoculated into the wells of the microtiter plate. To determine the medium’s background OD value, the first column of the 96-well plate contained solely MHB without inoculum. Prior to the measurement, the plates were incubated at 37 °C with continuous shaking at 900 rpm with 3 mm throw. OD600 values were determined in a microplate reader after 18 hours of incubation (Biotek Synergy 2). The minimum inhibitory concentration (MIC) was determined as the lowest concentration of antibiotic at which the OD600 values were less than 0.05 after subtracting the background value. The log2 of the relative MIC was computed using the following equation:2 log2relativeMICpUCacrAB=MICpUCacrAB/MICpUC118 3 log2relativeMICΔacrB=MICΔacrB/MICwt

[3] = EC-SEN (ATCC 25922), evolved line 1, MIC of evolved line / MIC of ancestor
[4] = EC-SEN (ATCC 25922), evolved line 2, MIC of evolved line / MIC of ancestor
[5] = EC-SEN (Escherichia coli ATCC 25922), evolved line 1 adapted to the named antibiotic
[6] = EC-SEN (Escherichia coli ATCC 25922), evolved line 8 adapted to the named antibiotic
[7] = Escherichia coli ATCC 25922 (EC-SEN), evolved line 1
[8] = Escherichia coli ATCC 25922 (EC-SEN), evolved line 2
[9] = Escherichia coli ATCC 25922 (EC-SEN), evolved line 3
[10] = Escherichia coli ATCC 25922 (EC-SEN), evolved line 4
[11] = Escherichia coli ATCC 25922 (EC-SEN), evolved line 6
[12] = Escherichia coli ATCC 25922 (EC-SEN), evolved line 7
[13] = Escherichia coli ATCC 25922 (EC-SEN), evolved line 8
[14] = Escherichia coli ATCC 25922 (EC-SEN), evolved line 9
[15] = Escherichia coli ATCC 25922 (EC-SEN), evolved line 10

Structure (SMILES): C[C@H]1c2cccc(O)c2C(=O)C2=C(O)[C@]3(O)C(=O)C(C(N)=O)=C(O)[C@@H](N(C)C)[C@@H]3[C@@H](O)[C@@H]21 [Doxycycline]
- Relative MIC [1, 3]: 32
- Relative MIC [1, 4]: 16
- Relative MIC ([1]; EC-SEN (ATCC 25922), evolved line 3, MIC of evolved line / MIC of ancestor): 32
- Relative MIC ([1]; EC-SEN (ATCC 25922), evolved line 4, MIC of evolved line / MIC of ancestor): 128
- Relative MIC ([1]; EC-SEN (ATCC 25922), evolved line 6, MIC of evolved line / MIC of ancestor): 8
- Relative MIC ([1]; EC-SEN (ATCC 25922), evolved line 7, MIC of evolved line / MIC of ancestor): 16
- Relative MIC ([1]; EC-SEN (ATCC 25922), evolved line 8, MIC of evolved line / MIC of ancestor): 32
- Relative MIC ([1]; EC-SEN (ATCC 25922), evolved line 9, MIC of evolved line / MIC of ancestor): 16
- Relative MIC ([1]; EC-SEN (ATCC 25922), evolved line 10, MIC of evolved line / MIC of ancestor): 16
- Relative MIC (log10) [1, 5]: 1.505
- Relative MIC (log10) ([1]; EC-SEN (Escherichia coli ATCC 25922), evolved line 2 adapted to the named antibiotic): 1.204
- Relative MIC (log10) ([1]; EC-SEN (Escherichia coli ATCC 25922), evolved line 3 adapted to the named antibiotic): 1.505
- Relative MIC (log10) [1, 6]: 1.505
- Relative MIC (log10) ([1]; EC-SEN (Escherichia coli ATCC 25922), evolved line 9 adapted to the named antibiotic): 1.204
- Relative MIC [1, 7]: 32
- Relative MIC [1, 8]: 16
- Relative MIC [1, 9]: 32
- Relative MIC [1, 10]: 128
- Relative MIC [1, 11]: 8
- Relative MIC [1, 12]: 16
- Relative MIC [1, 13]: 32
- Relative MIC [1, 14]: 16
- Relative MIC [1, 15]: 16
- Relative MIC (log2) ([2]; replicate 1): -2.34
- Relative MIC (log2) ([2]; replicate 2): -2.34
- Relative MIC (log2) ([2]; replicate 3): -2.34

Structure (SMILES): CN(C)[C@@H]1C(O)=C(C(N)=O)C(=O)[C@@]2(O)C(O)=C3C(=O)c4c(O)c(NC(=O)CN5CCCC5)cc(F)c4C[C@H]3C[C@@H]12 [Eravacycline]
- Relative MIC (log10) ([1]; EC-MDR (Escherichia coli NCTC 13846), evolved line 1 adapted to the named antibiotic): 1.505
- Relative MIC (log10) ([1]; EC-MDR (Escherichia coli NCTC 13846), evolved line 3 adapted to the named antibiotic): 1.204
- Relative MIC (log10) ([1]; EC-MDR (Escherichia coli NCTC 13846), evolved line 4 adapted to the named antibiotic): 1.204
- Relative MIC (log10) ([1]; EC-MDR (Escherichia coli NCTC 13846), evolved line 7 adapted to the named antibiotic): 1.204
- Relative MIC (log10) ([1]; EC-MDR (Escherichia coli NCTC 13846), evolved line 9 adapted to the named antibiotic): 1.505
- Relative MIC ([1]; EC-MDR (NCTC 13846), evolved line 1, MIC of evolved line / MIC of ancestor): 32
- Relative MIC ([1]; EC-MDR (NCTC 13846), evolved line 2, MIC of evolved line / MIC of ancestor): 16
- Relative MIC ([1]; EC-MDR (NCTC 13846), evolved line 3, MIC of evolved line / MIC of ancestor): 16
- Relative MIC ([1]; EC-MDR (NCTC 13846), evolved line 4, MIC of evolved line / MIC of ancestor): 16
- Relative MIC ([1]; EC-MDR (NCTC 13846), evolved line 5, MIC of evolved line / MIC of ancestor): 8
- Relative MIC ([1]; EC-MDR (NCTC 13846), evolved line 7, MIC of evolved line / MIC of ancestor): 16
- Relative MIC ([1]; EC-MDR (NCTC 13846), evolved line 8, MIC of evolved line / MIC of ancestor): 16
- Relative MIC ([1]; EC-MDR (NCTC 13846), evolved line 9, MIC of evolved line / MIC of ancestor): 32
- Relative MIC ([1]; EC-MDR (NCTC 13846), evolved line 10, MIC of evolved line / MIC of ancestor): 8
- Relative MIC [1, 3]: 64
- Relative MIC [1, 4]: 16
- Relative MIC (log10) [1, 5]: 1.806
- Relative MIC (log10) ([1]; EC-SEN (Escherichia coli ATCC 25922), evolved line 4 adapted to the named antibiotic): 1.204
- Relative MIC (log10) ([1]; EC-SEN (Escherichia coli ATCC 25922), evolved line 7 adapted to the named antibiotic): 1.204
- Relative MIC (log10) [1, 6]: 1.204
- Relative MIC ([1]; EC-SEN, Escherichia coli ATCC 25922, evolved line 3 versus ancestor): 8
- Relative MIC ([1]; EC-SEN, Escherichia coli ATCC 25922, evolved line 4 versus ancestor): 16
- Relative MIC ([1]; EC-SEN, Escherichia coli ATCC 25922, evolved line 6 versus ancestor): 8
- Relative MIC ([1]; EC-SEN, Escherichia coli ATCC 25922, evolved line 7 versus ancestor): 16
- Relative MIC ([1]; EC-SEN, Escherichia coli ATCC 25922, evolved line 8 versus ancestor): 16
- Relative MIC ([1]; EC-SEN, Escherichia coli ATCC 25922, evolved line 9 versus ancestor): 16
- Relative MIC ([1]; EC-SEN, Escherichia coli ATCC 25922, evolved line 10 versus ancestor): 32
- Relative MIC [1, 7]: 64
- Relative MIC [1, 8]: 16
- Relative MIC [1, 9]: 8
- Relative MIC [1, 10]: 16
- Relative MIC [1, 11]: 8
- Relative MIC [1, 12]: 16
- Relative MIC [1, 13]: 16
- Relative MIC [1, 14]: 16
- Relative MIC [1, 15]: 32
- Relative MIC ([1]; Escherichia coli NCTC 13846 (EC-MDR), evolved line 1): 32
- Relative MIC ([1]; Escherichia coli NCTC 13846 (EC-MDR), evolved line 2): 16
- Relative MIC ([1]; Escherichia coli NCTC 13846 (EC-MDR), evolved line 3): 16
- Relative MIC ([1]; Escherichia coli NCTC 13846 (EC-MDR), evolved line 4): 16
- Relative MIC ([1]; Escherichia coli NCTC 13846 (EC-MDR), evolved line 5): 8
- Relative MIC ([1]; Escherichia coli NCTC 13846 (EC-MDR), evolved line 7): 16
- Relative MIC ([1]; Escherichia coli NCTC 13846 (EC-MDR), evolved line 8): 16
- Relative MIC ([1]; Escherichia coli NCTC 13846 (EC-MDR), evolved line 9): 32
- Relative MIC ([1]; Escherichia coli NCTC 13846 (EC-MDR), evolved line 10): 8
- Relative MIC (log2) ([2]; replicate 1): -2.34
- Relative MIC (log2) ([2]; replicate 2): -2.34
- Relative MIC (log2) ([2]; replicate 3): -2.34
